Reference: BindingDB's records for doi:10.1021/jm020495y (F. Hoffmann-La Roche, 2003)

Test: Antibacterial activity of TMP-susceptible Dihydrofolate reductase against […] ATCC 49619
`Nc1ncc(CN2CCc3c([nH]c4ccccc34)C2)c(N)n1` [5-(1,3,4,9-Tetrahydro-beta-carbolin-2-ylmethyl)-pyrimidine-2,4-diamine] showed an IC50 of 4 nM.
In the case of `CC1c2ccc3c4ccccc4n(C)c3c2CCN1Cc1cnc(N)nc1N` (stereo unspecified) [5-(4,11-Dimethyl-1,2,4,11-tetrahydro-pyrido[4,3-a]carbazol-3-ylmethyl)-pyrimidine-2,4-diamine], the IC50 is reported as 4 nM.
For `CC1c2cc(Cc3ccccc3)c(-c3ccccc3)n2CCN1Cc1cnc(N)nc1N` (stereo unspecified) [5-(7-Benzyl-1-methyl-6-phenyl-3,4-dihydro-1H-pyrrolo[1,2-a]pyrazin-2-ylmethyl)-pyrimidine-2,4-diamine], the IC50 was 450 nM.
In the case of `CSc1c2n(c3cc(Cl)ccc13)CCN(Cc1cnc(N)nc1N)C2` [5-(7-Chloro-10-methylsulfanyl-3,4-dihydro-1H-pyrazino[1,2-a]indol-2-ylmethyl)-pyrimidine-2,4-diamine], the IC50 is reported as 2 nM.
With `COc1ccc2c(c1)CN(Cc1cnc(N)nc1N)CC2c1cccc([N+](=O)[O-])c1` (stereo unspecified) [5-[7-Methoxy-4-(3-nitro-phenyl)-3,4-dihydro-1H-isoquinolin-2-ylmethyl]-pyrimidine-2,4-diamine] the IC50 was 6 nM.

Test: Inhibitory activity of TMP-susceptible Dihydrofolate reductase against […] ATCC 49619
Work on `CC1c2ccc3c4ccccc4n(C)c3c2CCN1Cc1cnc(N)nc1N` (stereo unspecified) [5-(4,11-Dimethyl-1,2,4,11-tetrahydro-pyrido[4,3-a]carbazol-3-ylmethyl)-pyrimidine-2,4-diamine] yielded an IC50 of 10 nM.
